In the NIST ThermoML archive (doi:10.1021/je400894j):

Experiment: mn = molality of the nth substance listed, in mol/kg
Details: 101 kPa, Liquid, Falling or rolling sphere viscometry

O=C([O-])CC(O)(CC(=O)[O-])C(=O)[O-].[Na+].[Na+].[Na+] [trisodium citrate] + O
viscosity [mPa·s]
Details	288.15 K	298.15 K	308.15 K	318.15 K
m1 = 0.2	1.343	1.056	0.858	0.719
m1 = 0.4	1.661	1.296	1.047	0.868
m1 = 0.6	2.072	1.592	1.277	1.049
m1 = 0.8	2.633	2.002	1.581	1.287
